# Results from patent US11739098B2 (BRISTOL-MYERS SQUIBB COMPANY, priority 2017, dated 2023).
# Assays:
# Format in all cases: cell-based
# [1] = target: T1, human TLR7 (Homo sapiens, UniProt Q9NYK1); test: TLR7 inhibition reporter assay (HEK-Blue cells, SEAP reporter, gardiquimod stimulation); conditions: HEK-Blue cells overexpressing human TLR7, SEAP reporter, gardiquimod 7.5 μM
# T1 construct: host or cells: HEK-Blue cells (HEK293-derived reporter line)
# T1 sequence (Q9NYK1 27-1049): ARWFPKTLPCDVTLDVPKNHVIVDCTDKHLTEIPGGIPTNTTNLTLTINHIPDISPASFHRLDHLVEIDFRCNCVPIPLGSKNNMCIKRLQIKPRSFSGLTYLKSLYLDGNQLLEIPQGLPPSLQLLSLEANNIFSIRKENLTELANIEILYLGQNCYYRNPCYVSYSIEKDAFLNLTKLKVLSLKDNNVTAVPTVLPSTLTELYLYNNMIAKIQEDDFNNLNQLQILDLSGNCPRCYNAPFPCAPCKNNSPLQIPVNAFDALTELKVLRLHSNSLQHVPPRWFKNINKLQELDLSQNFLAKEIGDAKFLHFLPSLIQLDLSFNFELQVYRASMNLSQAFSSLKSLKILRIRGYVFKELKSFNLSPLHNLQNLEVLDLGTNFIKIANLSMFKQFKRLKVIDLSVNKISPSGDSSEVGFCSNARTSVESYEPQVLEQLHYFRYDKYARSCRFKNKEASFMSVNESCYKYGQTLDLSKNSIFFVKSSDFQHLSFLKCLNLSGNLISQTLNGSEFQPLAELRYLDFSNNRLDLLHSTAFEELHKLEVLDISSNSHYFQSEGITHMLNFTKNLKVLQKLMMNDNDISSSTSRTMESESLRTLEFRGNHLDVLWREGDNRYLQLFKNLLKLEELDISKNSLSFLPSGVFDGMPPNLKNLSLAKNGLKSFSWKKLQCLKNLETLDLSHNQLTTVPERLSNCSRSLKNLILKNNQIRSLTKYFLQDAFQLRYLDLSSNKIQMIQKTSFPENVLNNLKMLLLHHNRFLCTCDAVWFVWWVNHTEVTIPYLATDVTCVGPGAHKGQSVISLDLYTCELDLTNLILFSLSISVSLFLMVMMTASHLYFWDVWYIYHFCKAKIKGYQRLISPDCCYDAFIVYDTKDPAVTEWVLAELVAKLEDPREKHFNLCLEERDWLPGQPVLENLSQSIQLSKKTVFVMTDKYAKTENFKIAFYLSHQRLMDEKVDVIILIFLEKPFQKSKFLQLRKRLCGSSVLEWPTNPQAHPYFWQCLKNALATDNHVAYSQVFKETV
# Summary of the method: (§1)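 Agonists (final): TLR7 gardiquimod 7.5 μM; TLR8 R848 15.9 μM; TLR9 ODN2006 5 nM. HEK-Blue reporter cells, 30 min RT compound pre-incubation, 0.05 nM–50 μM dose range, 22 h at 37 °C, colorimetric SEAP detection medium. % inhibition relative to agonist+DMSO and known-inhibitor wells.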
# [2] = target: T2, human TLR9 (Homo sapiens, UniProt Q9NR96); test: TLR9 inhibition reporter assay (HEK-Blue cells, SEAP reporter, ODN2006 stimulation); conditions: HEK-Blue cells overexpressing human TLR9, SEAP reporter, ODN2006 5 nM
# T2 construct: host or cells: HEK-Blue cells (HEK293-derived reporter line)
# T2 sequence (Q9NR96 26-1032): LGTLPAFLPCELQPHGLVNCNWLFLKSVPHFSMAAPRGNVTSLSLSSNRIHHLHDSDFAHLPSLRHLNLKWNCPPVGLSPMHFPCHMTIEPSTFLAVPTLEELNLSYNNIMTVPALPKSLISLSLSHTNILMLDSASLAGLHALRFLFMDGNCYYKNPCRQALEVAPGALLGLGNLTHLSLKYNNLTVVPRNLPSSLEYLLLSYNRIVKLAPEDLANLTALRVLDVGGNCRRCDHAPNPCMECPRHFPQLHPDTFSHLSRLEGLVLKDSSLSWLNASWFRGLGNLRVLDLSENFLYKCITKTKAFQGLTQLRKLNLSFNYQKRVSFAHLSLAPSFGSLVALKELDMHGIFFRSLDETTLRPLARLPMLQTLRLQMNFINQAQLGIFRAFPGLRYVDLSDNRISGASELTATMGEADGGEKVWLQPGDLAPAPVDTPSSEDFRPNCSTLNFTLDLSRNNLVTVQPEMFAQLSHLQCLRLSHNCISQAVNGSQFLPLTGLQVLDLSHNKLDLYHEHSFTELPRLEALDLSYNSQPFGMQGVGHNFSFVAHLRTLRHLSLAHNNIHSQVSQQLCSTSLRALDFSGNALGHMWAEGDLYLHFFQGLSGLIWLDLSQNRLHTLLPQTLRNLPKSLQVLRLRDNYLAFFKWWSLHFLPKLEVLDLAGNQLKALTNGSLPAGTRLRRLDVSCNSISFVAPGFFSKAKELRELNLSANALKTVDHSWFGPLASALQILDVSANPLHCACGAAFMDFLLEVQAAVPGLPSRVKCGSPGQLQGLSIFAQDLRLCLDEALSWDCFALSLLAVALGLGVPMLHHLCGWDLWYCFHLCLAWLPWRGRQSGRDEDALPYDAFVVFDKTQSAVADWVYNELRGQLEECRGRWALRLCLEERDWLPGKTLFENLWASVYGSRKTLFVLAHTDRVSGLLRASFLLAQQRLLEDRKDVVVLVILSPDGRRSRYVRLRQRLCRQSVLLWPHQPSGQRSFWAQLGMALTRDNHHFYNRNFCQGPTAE
# Summary of the method: as §1
# [3] = target: T3, human TLR8 (Homo sapiens, UniProt Q9NR97); test: TLR8 inhibition reporter assay (HEK-Blue cells, SEAP reporter, R848 stimulation); conditions: HEK-Blue cells overexpressing human TLR8, SEAP reporter, R848 15.9 μM
# T3 construct: host or cells: HEK-Blue cells (HEK293-derived reporter line)
# T3 sequence (Q9NR97 27-1041): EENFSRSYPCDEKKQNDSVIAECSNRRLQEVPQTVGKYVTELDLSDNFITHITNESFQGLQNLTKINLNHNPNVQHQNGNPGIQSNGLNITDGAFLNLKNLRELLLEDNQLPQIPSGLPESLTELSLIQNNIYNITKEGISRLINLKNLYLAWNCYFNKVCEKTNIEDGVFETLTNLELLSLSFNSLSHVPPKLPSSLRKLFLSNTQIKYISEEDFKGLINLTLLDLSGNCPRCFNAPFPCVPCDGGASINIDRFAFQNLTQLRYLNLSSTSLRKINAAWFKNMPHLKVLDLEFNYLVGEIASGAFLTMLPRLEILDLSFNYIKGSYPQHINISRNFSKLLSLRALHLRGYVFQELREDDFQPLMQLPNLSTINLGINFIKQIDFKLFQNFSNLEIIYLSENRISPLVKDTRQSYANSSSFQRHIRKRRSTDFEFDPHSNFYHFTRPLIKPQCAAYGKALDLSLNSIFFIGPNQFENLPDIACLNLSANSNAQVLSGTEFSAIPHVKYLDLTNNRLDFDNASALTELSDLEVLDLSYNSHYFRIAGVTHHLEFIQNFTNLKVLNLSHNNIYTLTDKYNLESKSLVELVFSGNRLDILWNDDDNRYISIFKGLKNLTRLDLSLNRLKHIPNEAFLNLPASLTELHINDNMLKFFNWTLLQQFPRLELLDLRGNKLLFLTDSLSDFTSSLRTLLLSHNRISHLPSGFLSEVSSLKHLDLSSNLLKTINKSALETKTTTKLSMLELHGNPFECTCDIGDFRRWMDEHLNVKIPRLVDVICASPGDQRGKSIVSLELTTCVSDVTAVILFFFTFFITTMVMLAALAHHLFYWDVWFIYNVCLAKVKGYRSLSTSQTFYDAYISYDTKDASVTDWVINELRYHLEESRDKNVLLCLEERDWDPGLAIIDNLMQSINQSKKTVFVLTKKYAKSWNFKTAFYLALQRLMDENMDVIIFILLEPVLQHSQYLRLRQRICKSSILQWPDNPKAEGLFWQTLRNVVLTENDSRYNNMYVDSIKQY
# Summary of the method: as §1
IC50 [1],IC50 [2],IC50 [3],SMILES
1000 to 50000 nM,1000 to 50000 nM,1000 to 50000 nM,"CCc1c(-c2cnc3c(N)n[nH]c3c2)[nH]c2ccc(C3CCNCC3)cc12 [Example 240, 6-(3-ethyl-5-(piperidin-4-yl)-1H-indol-2-yl)-1H-pyrazolo[4,3-b]pyridin-3-amine]"
100 to 1000 nM,100 to 1000 nM,< 100 nM,"CCc1c(-c2ccnc3[nH]ccc23)[nH]c2ccc(C3CCN(C4CCN(CC(C)C)CC4)CC3)cc12 [Example 849, 4-(3-ethyl-5-(1′-isobutyl-[1,4′-bipiperidin]-4-yl)-1H-indol-2-yl)-1H-pyrrolo[2,3-b]pyridine]"
< 100 nM,100 to 1000 nM,< 100 nM,"CC(C)c1c(-c2ccn3c(=O)[nH]nc3c2)[nH]c2ccc(C3CCNCC3)cc12 [Example 199, 7-(3-isopropyl-5-(piperidin-4-yl)-1H-indol-2-yl)-[1,2,4]triazolo[4,3-a]pyridin-3(2H)-one]"
< 100 nM,1000 to 50000 nM,< 100 nM,"Cc1ccnc2c1c(-c1[nH]c3ccc(C4CCN(C(=O)CN(C)C)CC4)cc3c1C(C)C)cn2C [Example 457, 1-(4-(2-(1,4-dimethyl-1H-pyrrolo[2,3-b]pyridin-3-yl)-3-isopropyl-1H-indol-5-yl)piperidin-1-yl)-2-(dimethylamino)ethan-1-one]"
< 100 nM,1000 to 50000 nM,< 100 nM,"CC(C)c1c(-c2ccnc3[nH]ncc23)[nH]c2ccc(C3CCN(Cc4ncc[nH]4)CC3)cc12 [Example 914, 4-(5-(1-((1H-imidazol-2-yl)methyl)piperidin-4-yl)-3-isopropyl-1H-indol-2-yl)-1H-pyrazolo[3,4-b]pyridine]"
< 100 nM,100 to 1000 nM,< 100 nM,"CNC(=O)CN1CCC(c2ccc3[nH]c(-c4cc(C)c5nc(C)cn5c4)c(C(C)C)c3c2)CC1 [Example 391, 2-(4-(2-(2,8-dimethylimidazo[1,2-a]pyridin-6-yl)-3-isopropyl-1H-indol-5-yl)piperidin-1-yl)-N-methylacetamide]"
100 to 1000 nM,100 to 1000 nM,< 100 nM,"Cc1n[nH]c2nccc(-c3[nH]c4ccc(C5CCN(Cc6cnc[nH]6)CC5)cc4c3C(C)C)c12 [Example 875, 4-(5-(1-((1H-imidazol-5-yl)methyl)piperidin-4-yl)-3-isopropyl-1H-indol-2-yl)-3-methyl-1H-pyrazolo[3,4-b]pyridine]"
< 100 nM,100 to 1000 nM,< 100 nM,"CC(C)c1c(-c2cc(C(F)(F)F)c3nccn3c2)[nH]c2ccc(C3CCN(Cc4cnn(C)c4)CC3)cc12 [Example 933, 6-(3-isopropyl-5-(1-((1-methyl-1H-pyrazol-4-yl)methyl)piperidin-4-yl)-1H-indol-2-yl)-8-(trifluoromethyl)imidazo[1,2-a]pyridine]"
< 100 nM,1000 to 50000 nM,100 to 1000 nM,"CNC(=O)CN1CCC(c2ccc3[nH]c(-c4cc(C(F)(F)F)c5nc(C)cn5c4)c(C(C)C)c3c2)CC1 [Example 377, 2-(4-(3-isopropyl-2-(2-methyl-8-(trifluoromethyl)imidazo[1,2-a]pyridin-6-yl)-1H-indol-5-yl)piperidin-1-yl)-N-methylacetamide]"
100 to 1000 nM,100 to 1000 nM,100 to 1000 nM,"COc1cc(-c2[nH]c3ccc(C4CCN(C5COC5)CC4)cc3c2C(C)C)cc2nccn12 [Example 712, 7-(3-isopropyl-5-(1-(oxetan-3-yl)piperidin-4-yl)-1H-indol-2-yl)-5-methoxyimidazo[1,2-a]pyridine]"
< 100 nM,1000 to 50000 nM,< 100 nM,"Cc1cc2ncnn2nc1-c1[nH]c2ccc(C3CCN(C(=O)CN(C)C)CC3)cc2c1C(C)C [Example 455, 2-(dimethylamino)-1-(4-(3-isopropyl-2-(7-methyl-[1,2,4]triazolo[1,5-b]pyridazin-6-yl)-1H-indol-5-yl)piperidin-1-yl)ethan-1-one]"
< 100 nM,< 100 nM,< 100 nM,"CNCCN1CCC(c2ccc3[nH]c(-c4ccc5ncnn5n4)c(C)c3c2)CC1 [Example 651, 2-(4-(2-([1,2,4]triazolo[1,5-b]pyridazin-6-yl)-3-methyl-1H-indol-5-yl)piperidin-1-yl)-N-methylethan-1-amine]"
100 to 1000 nM,1000 to 50000 nM,< 100 nM,"Cc1cc(-c2[nH]c3ccc(C4CCN(C5COC5)CC4)cc3c2C(C)C)c(C)n2nnnc12 [Example 740, 6-(3-isopropyl-5-(1-(oxetan-3-yl)piperidin-4-yl)-1H-indol-2-yl)-5,8-dimethyltetrazolo[1,5-a]pyridine]"
100 to 1000 nM,1000 to 50000 nM,< 100 nM,"CCc1c[nH]c2nccc(-c3[nH]c4ccc(C5CCNCC5)cc4c3C(C)C)c12 [Example 222, 3-ethyl-4-(3-isopropyl-5-(piperidin-4-yl)-1H-indol-2-yl)-1H-pyrrolo[2,3-b]pyridine]"
